The text below walks through data of patent US5371096A, “(3-pyridyl)tetrafuran-2-yl substituted carboxylic acids” (Ciba-Geigy Corporation, priority 1993, dated 1994).

Experiment [1] has as its system U46619-induced platelet aggregation. Put plainly: inhibition of U46619-induced platelet aggregation after oral dosing in guinea pigs. The format is in vivo, guinea pig. The method, then:
(§1) Such inhibition of platelet aggregation is determined using methodology known in the art, e.g. in vitro in the presence of a compound of the invention in human platelet rich plasma, or by measuring the inhibition of aggregation seen in plasma obtained from a mammal previously administered a compound of the invention, e.g. orally or intravenously when compared to controls. Platelet aggregation is measured in a Born aggregometer and platelet rich plasma is prepared from venous blood e.g. as described in Br. J. Haematol. 43, 637 (1979). Suitable test animals are anesthetized rats or guinea pigs and unanesthetized rabbits or cyanomolgus monkeys.

The target of experiment [2] is T1, thromboxane-A2 receptor (Homo sapiens, UniProt P21731).
T1 sequence (P21731 1-343): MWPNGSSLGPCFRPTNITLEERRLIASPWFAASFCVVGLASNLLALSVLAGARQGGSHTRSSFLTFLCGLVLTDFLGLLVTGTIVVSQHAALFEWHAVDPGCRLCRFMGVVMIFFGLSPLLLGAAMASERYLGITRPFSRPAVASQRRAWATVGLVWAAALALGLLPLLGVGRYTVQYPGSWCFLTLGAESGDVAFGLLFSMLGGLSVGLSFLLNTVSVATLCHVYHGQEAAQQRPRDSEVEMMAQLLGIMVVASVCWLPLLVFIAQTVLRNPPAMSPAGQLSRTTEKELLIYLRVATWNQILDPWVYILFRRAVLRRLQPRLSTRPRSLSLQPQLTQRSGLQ
Put plainly: inhibition of U-46619-induced aggregation of aspirinated washed human platelets. The format is cell-based. The arrangement: U-46619 induced platelet aggregation of aspirinated human washed platelets and in human platelet rich plasma; endogenous in cells; host or cells: human platelets (aspirinated washed platelets in A1; platelet rich plasma in A2). Particulars: in vitro. As for the experimental part: Acad. Sci. 76, 4097 (1979).
(§2) The inhibition of thromboxane-A2 receptor activity is determined by measuring the inhibition of U-46619 induced platelet aggregation of aspirinated human washed platelets and in human platelet rich plasma. U-46619 is (15S)-hydroxy-11-α,9-α(epoxymethanol)-prosta-(5Z,13E)-dienoic acid, a throm boxane-A2 receptor agonist, as described by Di Minno et at, Thromb. Haemost. 45, 103 (1981).

Experiment [3] concerns the target T1, thromboxane-A2 receptor. Put plainly: inhibition of U-46619 induced aggregation in human platelet rich plasma. As to conditions: in vitro. The format is cell-based. As for the experimental part:
as §2, §1

Another experiment relates to thromboxane synthetase. The experiment in a line: serum thromboxane B2, 6-keto-PGF1α and PGE2 levels after oral dosing in cyanomolgus monkeys. Particulars: 30 mg/kg. The format is in vivo, cyanomolgus monkey.
The subject of experiment [4] is U46619-induced ex vivo platelet aggregation. Put plainly: U46619-induced ex vivo platelet aggregation after oral dosing in cyanomolgus monkeys. The arrangement: species or system cyanomolgus monkey. As to conditions: 30 mg/kg. The method, then:
as §1

Where [5] appears, read: concomitant with serum thromboxane B2 inhibition.

SMILES strings stand for the structures.

As a reminder, the IC50 is the concentration needed to halve the response being measured. As to `O=C(O)CC/C=C\CC[C@@H]1[C@@H](OCc2ccc(-c3ccccc3)cc2)CO[C@@H]1c1cccnc1` [Example 1, (Z)-(2S,3S,4R)-7-[4-(1,1'-biphenyl-4-ylmethoxy)-2-(3-pyridyl)tetrahydrofuran-3-yl]-4-heptenoic acid], in experiment [1] (conscious guinea pigs, oral, 0.3 mg/kg, 1 hour post dose), the “inhibition of U46619-induced platelet aggregation 1 hour post dose” value was “effectively inhibits”. Also, the “increase of the concentration of thromboxane-mimetic required to induce 50% maximal aggregation” value in experiment [1] (guinea pigs, oral dose of 0.23 mg/kg) is on record as 50 fold. The same compound gave an IC50 against thromboxane-A2 receptor [2] of 26.5 nM. This compound returned a half-maximal inhibitory concentration (IC50) on thromboxane-A2 receptor [3] of 250 nM. Further, in the experiment on thromboxane synthetase, the “duration of inhibition of serum thromboxane B2” value amounted to 24 h. Further, in the experiment with thromboxane synthetase (setting [5]), the 6-keto-PGF1α level entry is “elevations” and the PGE2 level entry is “elevations”. For the same compound, in experiment [4], the “duration of total inhibition of U46619-induced ex vivo platelet aggregation” value is “at least 8 hours” and the “time of return of ex vivo platelet aggregation to predose values” was 24 h. In addition, in experiment [4] (for at least 8 hours), the “inhibition of U46619-induced ex vivo platelet aggregation” value is given as “totally inhibited”.
In the case of `O=C(O)CCC=CCCC1C(OCc2ccc(-c3ccccc3)cc2)COC1c1cccnc1` (stereo not drawn) [Example 8(a), (Z)-(2α,3β,4β)-7-[4-(biphenyl-4-yl-methoxy)-2-(3-pyridyl)tetrahydrofuran-3-yl)hept-4-enoic acid], the half-inhibitory concentration (IC50) is 28 nM against thromboxane-A2 receptor [2] and around 400 nM against thromboxane-A2 receptor [3].
